Activity calls are given as the source filed them. The rule behind the calls is not given here.
Columns and labels:
[1] = target: T1, Transcriptional enhancer factor TEF-3 (Homo sapiens, UniProt Q15561); assay: (§1) Inhibition of N-terminal His6 tagged human TEAD4-YBD (217 to 434 residues) expressed in Escherichia coli C43 (DE3) cells assessed as reduction in autopalmitoylation at 800 nM preincubated for 2 hrs followed by palmitoyl alkyne-coenzyme A addition and measured after 30 mins by immunoblot analysis relative to control
[2] = target: T1, Transcriptional enhancer factor TEF-3; assay: as §1, with “200” for “800”, “mins” for “mins by”
[3] = target: T1, Transcriptional enhancer factor TEF-3; assay: Inhibition of N-terminal His6-tagged human TEAD4 YAP binding domain (217 to 434 residues) expressed in Escherichia coli C43 (DE3) cells assessed reduction in autopalmitoylation preincubated for 2 hrs followed by palmitoyl alkyne coenzyme A addition and measured after 30 mins by immunoblot analysis
[4] = target: T1, Transcriptional enhancer factor TEF-3; assay: Binding affinity to N-terminal His6 tagged human TEAD4-YBD (217 to 434 residues) expressed in Escherichia coli C43 (DE3) cells by SPR analysis
[5] = target: T1, Transcriptional enhancer factor TEF-3; assay: Binding affinity to N-terminal His6 tagged human TEAD4 (217 to 434 residues) expressed in Escherichia coli C43 (DE3) cells incubated for 30 mins by isothermal Titration Calorimetry
[6] = target: T1, Transcriptional enhancer factor TEF-3; assay: Inhibition of N-terminal His6 tagged human TEAD4-YBD (217 to 434 residues) expressed in Escherichia coli C43 (DE3) cells assessed as reduction in autopalmitoylation at 50 uM preincubated for 2 hrs followed by palmitoyl alkyne-coenzyme A addition and measured after 30 mins by immunoblot analysis
[7] = target: T1, Transcriptional enhancer factor TEF-3; assay: Binding affinity to TEAD4 (unknown origin) assessed as induction of protein folding by SYPRO-dye based thermal shift assay
[8] = target: T1, Transcriptional enhancer factor TEF-3; assay: Binding affinity to TEAD4 (unknown origin) assessed as change in melting temperature by fluorescence based thermal shift assay
[9] = target: T1, Transcriptional enhancer factor TEF-3; assay: Competitive binding affinity to N-terminal His6 tagged human TEAD4 (217 to 434 residues) expressed in Escherichia coli C43 (DE3) cells at 200 uM in presence of palmitoyl CoA by CPMG NMR spectral analysis
[10] = target: T1, Transcriptional enhancer factor TEF-3; assay: Binding affinity to TEAD4 (unknown origin) assessed as change in melting temperature at protein to compound ratio of 1:40 by SYPRO orange dye based thermal shift assay
[11] = target: T1, Transcriptional enhancer factor TEF-3; assay: Binding affinity to TEAD4 (unknown origin) assessed as change in melting temperature at protein to compound ratio of 1:10 by SYPRO orange dye based thermal shift assay
[12] = target: T1, Transcriptional enhancer factor TEF-3; assay: Binding affinity to N-terminal His6 tagged human TEAD4 (217 to 434 residues) expressed in Escherichia coli C43 (DE3) cells at 200 uM by CPMG NMR spectral analysis
[13] = target: T1, Transcriptional enhancer factor TEF-3; assay: Binding affinity to N-terminal His6 tagged human TEAD4 (217 to 434 residues) expressed in Escherichia coli C43 (DE3) cells at 200 uM by STD NMR spectral analysis

T1 sequence (Q15561 whole entry, the tested form may be a part): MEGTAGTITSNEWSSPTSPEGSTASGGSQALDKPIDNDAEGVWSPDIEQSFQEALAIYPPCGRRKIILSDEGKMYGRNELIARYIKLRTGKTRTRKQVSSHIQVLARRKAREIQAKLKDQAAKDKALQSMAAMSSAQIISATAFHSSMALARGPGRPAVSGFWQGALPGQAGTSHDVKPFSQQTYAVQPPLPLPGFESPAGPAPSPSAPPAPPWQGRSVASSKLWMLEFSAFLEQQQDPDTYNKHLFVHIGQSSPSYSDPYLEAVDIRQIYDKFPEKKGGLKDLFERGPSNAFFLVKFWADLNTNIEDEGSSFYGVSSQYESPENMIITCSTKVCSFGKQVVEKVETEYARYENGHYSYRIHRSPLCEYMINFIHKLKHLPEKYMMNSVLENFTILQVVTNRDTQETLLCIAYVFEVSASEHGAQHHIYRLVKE

Structure (SMILES): C=CS(=O)(=O)Oc1ccc(Oc2ccccc2)cc1
- inhibition [1]: 94.8%
- inhibition [2]: 62.2%

Structure (SMILES): C=CS(=O)(=O)Nc1ccc2c(c1)CCN(C(=O)c1ccccc1)C2
- inhibition [1]: 25.4%
- inhibition [2]: 5.4%

Structure (SMILES): C=CS(=O)(=O)Nc1ccc2ccccc2c1
- inhibition [1]: 1.1%
- inhibition [2]: 8.4%

Structure (SMILES): C=CS(=O)(=O)Nc1ccc(Cc2ccc3ccc(O)cc3c2)cc1
- inhibition [1]: 82.5%
- inhibition [2]: 18.9%

Structure (SMILES): C=CS(=O)(=O)Nc1ccccc1Oc1ccccc1
- inhibition [1]: 25.2%
- inhibition [2]: -4.1%

Structure (SMILES): O=C(O)c1ccccc1Nc1cccc(C(F)(F)F)c1 [FLUFENAMIC ACID]
- IC50 [3]: 54 µM
- inhibition [3]: Dose-dependent effect
- Kd [4]: 84 µM
- Kd [5]: 73 µM

Structure (SMILES): C=CS(=O)(=O)Nc1ccc(Cc2ccc3ccccc3c2)c(O)c1
- inhibition [1]: 92.1%
- inhibition [2]: 44.3%

Structure (SMILES): C=CS(=O)(=O)Nc1ccc(C(=O)Nc2ccc3c(c2)CCNC3)cc1
- inhibition [1]: 10.1%
- inhibition [2]: 0.3%

Structure (SMILES): C=CS(=O)(=O)Nc1ccc(OCc2ccccc2)cc1
- inhibition [1]: 52.5%
- inhibition [2]: 21%

Structure (SMILES): C=CS(=O)(=O)Nc1ccc(NC(=O)c2ccc3ccccc3c2)cc1
- inhibition [1]: 35%
- inhibition [2]: 15.6%

Structure (SMILES): C=CS(=O)(=O)Nc1ccc(Cc2ccc3ccccc3c2)c(OC2CCNCC2)c1
- inhibition [1]: 6.5%
- inhibition [2]: 1.2%
- inhibition [6]: Active

Structure (SMILES): Cc1ccc(Oc2ccc(N)cc2)cc1
- IC50 [3]: 32 µM
- inhibition [3]: Dose-dependent effect
- Activity [7]: Dose-dependent effect
- Activity [8]: Dose-dependent effect
- Activity [9]: Active
- Kd [4]: 41 µM
- ΔTm [10]: 4.5 °C
- ΔTm [11]: 3.1 °C
- Activity [12]: Active
- Activity [13]: Active

Structure (SMILES): C=CS(=O)(=O)Nc1ccc(Cc2ccccc2)cc1
- inhibition [1]: 92.5%
- inhibition [2]: 59.2%

Reference: ChEMBL document CHEMBL4376829, “Discovery and biological evaluation of vinylsulfonamide derivatives as highly potent, covalent TEAD autopalmitoylation inhibitors” (Eur J Med Chem, 2019)
